# Values of other authors as cited in US20050176650A1, “Stable parenteral formulation of levomepromazine and a method for stabilizing said formulation” (Xanodyne Pharmacal, Inc., priority 2004, published 2005).
# What was measured:
# [1] = prior art description
# [2] = rats; prior art description
# traumatic shock = conditions: rats; prior art description
compound,measurement,setting,value
"COc1ccc2c(c1)N(C[C@H](C)CN(C)C)c1ccccc1S2 [Levomepromazine, (−)-(2R)-3-(2-methoxy-10H-phenothiazin-10-yl)-N,N,2-trimethylpropan-1-amine]","hypothermic action, potency relative to chlorpromazine",[1],three times more potent than that of chlorpromazine
same,local anesthesia following parasciatic injections,[2],produce deep local anesthesia
same,protection against traumatic shock,traumatic shock,readily protect against traumatic shock
